Test results published in patent US8415469B2, “Compounds and methods for kinase modulation, and indications therefor” (Plexxikon Inc., priority 2005, dated 2013).

Assays:
Format in all cases: biochemical
Kdr = molecular target: T1, Kdr (Homo sapiens, UniProt P35968); test: Z'-Lyte FRET kinase assay (Invitrogen), Kdr; details: read-out: IC50, activity toward kinase Kdr
T1 construct: purchased Invitrogen (assay run by Invitrogen)

Kit = molecular target: T2, Kit (Homo sapiens, UniProt P10721); test: AlphaScreen kinase assay, Kit; details: read-out: IC50, activity toward kinase Kit
T2 construct: P1332.N6 BI PTP KIT M552-K948-X COD; His6 (N); made in house; host or cells: E. coli (PTP1B co-expressed)

MAPKAPK2 = molecular target: T3, MAPKAPK2 (Homo sapiens, UniProt P49137); test: Z'-Lyte FRET kinase assay (Invitrogen), MAPKAPK2; details: read-out: IC50, activity toward kinase MAPKAPK2
T3 construct: purchased Invitrogen (assay run by Invitrogen)
Text: The effect of potential modulators of kinase activity can be measured in a variety of different assays known in the art. For example, direct radiometric, indirect FRET or AlphaScreen assays may be used to assess the level of phosphorylation of a substrate in the presence of test compounds in order to determine the inhibitory affect of the compound on the kinase. Invitrogen (Carlsbad, Calif.) uses a FRET based assay for Btk, EGFR, EphB2, Flt3, lrak4, Kdr, MAP2K1, MAPKAPK2, PDGFRB, PKC theta, Stk6 and Yes. For these assays, compounds of the invention were screened by Invitrogen using Z′-Lyte™ kinase assay.
Briefly, the Invitrogen kinase assay involves use of a specific peptide substrate optimized for each kinase, containing a fluorophore at each end that make up the FRET pair. The peptide sensitivity to proteolytic cleavage depends on phosphorylation of the peptide. Non-phosphorylated peptide is cleaved by a protease while peptide phosphorylated by the kinase is not cleaved. Cleavage of the peptide disrupts the FRET between the donor (coumarin) and acceptor (fluorescein) fluorophores, resulting in an increase in the ratio of donor emission to acceptor emission. The emission ratio of coumarin to fluorescein is used to assess the reaction progress. The extent of phosphorylation is determined from the emission ratio, which is low when the kinase is active (phosphorylated peptide is not cleaved, FRET pair connected) or higher for inhibited kinase (non-phosphorylated peptide is cleaved, FRET pair separated). Thus, the assay involves a kinase reaction in the presence of varying concentrations of a given compound, a development reaction with site specific protease, and detection of the fluorescent emission ratio of coumarin and fluorscein. […] Reaction conditions for each kinase are determined to provide optimal reaction times, incubation temperature, kinase and ATP concentrations. Test samples are made up in 1× kinase buffer (50 mM HEPES pH 7.5, 50 mM MgCl2, 5 mM EGTA, 0.05% BRIJ-35) and compound at desired concentration prepared in DMSO such that the final DMSO is 1%. […] Typically, assay plates are prepared to 10 μl final volume per sample, adding 2.5 μl of compound at 4× the desired concentration in 4% DMSO (serial dilution of compound provides concentration curve), 5 μl of the desired kinase mixed with Z′-LYTE™ peptide substrate (2× in 2× kinase buffer, final peptide at 2 μM), and 2.5 μl of 4×ATP solution. All kinase except for MAP2K1 were at 10 μM ATP in the kinase reaction, while MAP2K1 was at 100 μM. Samples are mixed and the kinase reaction is incubated 1 hour at room temperature, after which 5 μl of development solution is added and mixed. After incubation for another 1 hour at room temperature, 5 μl of stop reagent is added to each sample and mixed. The fluorescence signals are measured to determine the emission ratio.

Pyk2 = molecular target: T4, Pyk2 (Homo sapiens, UniProt Q14289); test: AlphaScreen kinase assay, Pyk2; details: read-out: IC50, activity toward kinase Pyk2
T4 construct: purchased Upstate Biotechnology

Stk6 = molecular target: T5, Stk6 (Homo sapiens, UniProt O14965); test: Z'-Lyte FRET kinase assay (Invitrogen), Stk6; details: read-out: IC50, activity toward kinase Stk6
T5 construct: purchased Invitrogen (Carlsbad, Calif.), screening service
T5 sequence (O14965 1-403): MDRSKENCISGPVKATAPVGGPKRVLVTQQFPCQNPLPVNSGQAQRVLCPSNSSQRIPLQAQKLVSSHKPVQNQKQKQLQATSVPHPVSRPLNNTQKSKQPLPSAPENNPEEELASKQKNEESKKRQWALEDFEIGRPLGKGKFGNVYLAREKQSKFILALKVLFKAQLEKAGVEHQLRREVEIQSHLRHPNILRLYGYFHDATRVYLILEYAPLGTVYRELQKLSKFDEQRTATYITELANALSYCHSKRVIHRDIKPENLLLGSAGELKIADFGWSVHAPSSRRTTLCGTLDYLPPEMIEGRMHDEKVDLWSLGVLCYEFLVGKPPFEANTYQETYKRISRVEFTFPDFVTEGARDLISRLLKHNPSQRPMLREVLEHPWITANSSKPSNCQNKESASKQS

Gsk3β = Gsk3β (Homo sapiens, UniProt P49841); test: AlphaScreen kinase assay, Gsk3β; details: read-out: IC50, activity toward kinase Gsk3β
Summary of the method: (§1)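 Bead-proximity format: phosphopeptide links anti-phospho antibody acceptor beads to streptavidin donor beads via biotin tag. Compounds were serially diluted 1:3 (8 points) from 20 mM stocks in DMSO.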

IKK beta = molecular target: T6, IKK beta (Homo sapiens, UniProt O14920); test: AlphaScreen kinase assay, IKK beta; details: read-out: IC50, activity toward kinase IKK beta
T6 sequence (O14920 1-756): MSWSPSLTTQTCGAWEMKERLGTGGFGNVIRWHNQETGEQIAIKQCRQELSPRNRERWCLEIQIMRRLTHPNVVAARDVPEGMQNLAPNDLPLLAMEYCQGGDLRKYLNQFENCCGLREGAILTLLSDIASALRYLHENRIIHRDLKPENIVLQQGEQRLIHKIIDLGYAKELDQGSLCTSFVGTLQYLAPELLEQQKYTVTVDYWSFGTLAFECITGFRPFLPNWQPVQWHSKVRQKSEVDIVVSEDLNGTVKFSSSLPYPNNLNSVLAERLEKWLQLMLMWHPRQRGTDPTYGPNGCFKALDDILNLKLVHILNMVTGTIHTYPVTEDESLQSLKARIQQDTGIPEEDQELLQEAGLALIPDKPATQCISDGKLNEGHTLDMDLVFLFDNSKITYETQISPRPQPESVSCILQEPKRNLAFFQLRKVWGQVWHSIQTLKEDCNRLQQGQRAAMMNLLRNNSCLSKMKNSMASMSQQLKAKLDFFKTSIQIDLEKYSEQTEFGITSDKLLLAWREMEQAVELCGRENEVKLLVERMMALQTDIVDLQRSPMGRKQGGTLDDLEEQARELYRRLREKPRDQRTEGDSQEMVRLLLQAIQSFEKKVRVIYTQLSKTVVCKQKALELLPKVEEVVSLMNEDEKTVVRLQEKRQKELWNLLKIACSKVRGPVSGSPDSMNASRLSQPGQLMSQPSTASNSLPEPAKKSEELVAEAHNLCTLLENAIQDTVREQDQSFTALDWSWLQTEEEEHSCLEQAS

Fak = molecular target: T7, Fak (Homo sapiens, UniProt Q05397); test: AlphaScreen kinase assay, Fak; details: read-out: IC50, activity toward kinase Fak
T7 construct: P1358.pFastBacHtb FAK S411-Q686-X; His6 with pFastBacHTb leader (TEV site) (N); made in house; host or cells: Sf9 (baculovirus)

FGFR1 = molecular target: T8, FGFR1 (Homo sapiens, UniProt P11362, C488A/C584S); test: AlphaScreen kinase assay, FGFR1; details: read-out: IC50, activity toward kinase FGFR
T8 construct: P1351.pET N6 BI-PTP FGFR A458-E765-X C488A, C584S; made in house; host or cells: E. coli (PTP1B co-expressed)

Src = molecular target: T9, Src (Homo sapiens, UniProt P12931); test: AlphaScreen kinase assay, Src; details: read-out: IC50, activity toward kinase Src
T9 construct: P1144. pET-N6 BI-PTP SRC V86-L536-X; made in house

Csk = Csk (Homo sapiens, UniProt P41240); test: AlphaScreen kinase assay, Csk; details: read-out: IC50, activity toward kinase Csk
Text: (§2) AlphaScreen assay was used to screen additional kinases. The assay is similarly dependent on the phosphorylation of a peptide substrate. In this assay, an antibody that recognizes phosphorylated substrate is bound to an acceptor bead. The peptide substrate is attached to biotin, which binds to a donor head that contains streptavidin. Thus phosphorylated substrate is bound by antibody and streptavidin, bringing the donor and acceptor heads into close proximity when kinase is not inhibited. The donor produces singlet oxygen which results in emission from the acceptor when they are in close proximity. Conversely, when kinase is inhibited, the donor and acceptor beads are not associated and the emission from the acceptor is reduced.
(§3) AlphaScreen assays were done using compounds dissolved in DMSO to a concentration of 20 mM. The compounds were diluted accordingly to the desired final concentrations in each sample well, using 1:3 serial dilution for a total of 8 concentration points.

Frk = Frk (Homo sapiens, UniProt P42685); test: AlphaScreen kinase assay, Frk; details: read-out: IC50, activity toward kinase Frk
Text: as §2, §3

Hck = Hck (Homo sapiens, UniProt P08631); test: AlphaScreen kinase assay, Hck; details: read-out: IC50, activity toward kinase Hck
Text: as §2, §3

MAP4K4 = MAP4K4 (Homo sapiens, UniProt O95819); test: AlphaScreen kinase assay, MAP4K4; details: read-out: IC50, activity toward kinase MAP4K4
PDGFRA = PDGFRA (Homo sapiens, UniProt P16234); test: AlphaScreen kinase assay, PDGFRA; details: read-out: IC50, activity toward kinase PDGFRA
Text: as §2, §3

Brk = Brk (Homo sapiens, UniProt Q13882); test: AlphaScreen kinase assay, Brk; details: read-out: IC50, activity toward kinase Brk
Text: as §2, §3

Abl = molecular target: T10, Abl (Homo sapiens, UniProt P00519); test: AlphaScreen kinase assay, Abl; details: read-out: activity toward kinase Abl, IC50
T10 construct: P1121. pET-SPEC BI-PTP Abl G227-V515-X; His6 (N); made in house; host or cells: E. coli (PTP1B co-expressed)
T10 sequence (P00519 with tags, fused parts or gaps): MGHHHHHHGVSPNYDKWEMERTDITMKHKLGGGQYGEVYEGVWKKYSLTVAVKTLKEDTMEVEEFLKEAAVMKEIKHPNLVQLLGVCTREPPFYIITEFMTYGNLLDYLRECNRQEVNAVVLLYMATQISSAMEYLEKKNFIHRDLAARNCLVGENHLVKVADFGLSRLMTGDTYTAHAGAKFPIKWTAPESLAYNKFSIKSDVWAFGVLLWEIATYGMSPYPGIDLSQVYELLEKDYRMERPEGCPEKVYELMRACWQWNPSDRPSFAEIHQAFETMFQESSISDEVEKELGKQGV
Summary of the method: as §1

B-Raf = molecular target: T11, B-Raf (Homo sapiens, UniProt P15056); test: AlphaScreen kinase assay, B-Raf; details: read-out: IC50, activity toward kinase B-Raf
T11 construct: purchased Upstate Biotechnology

B-Raf V600E = molecular target: T12, B-Raf V600E (Homo sapiens, UniProt P15056, V600E); test: AlphaScreen kinase assay, B-Raf V600E; details: read-out: IC50, activity toward kinase B-Raf V600E
T12 construct: P4254. pFastBacBD-CDC37 BRAF D437-K722-X, V600E; His6 with pFastBac HT leader (TEV site) (N); made in house; host or cells: Sf9 (baculovirus; chaperone CDC37 co-expressed)

Btk = molecular target: T13, Btk (Homo sapiens, UniProt Q06187); test: Z'-Lyte FRET kinase assay (Invitrogen), Btk; details: read-out: IC50, activity toward kinase Btk
T13 construct: purchased Invitrogen (assay run by Invitrogen)

c-Raf-1 = molecular target: T14, c-Raf-1 (Homo sapiens, UniProt P04049); test: AlphaScreen kinase assay, c-Raf-1; details: read-out: IC50, activity toward kinase c-Raf-1
T14 construct: purchased Upstate Biotechnology

Fms = molecular target: T15, Fms (Homo sapiens, UniProt P07333); test: AlphaScreen kinase assay, Fms; details: read-out: IC50, activity toward kinase Fms
T15 construct: purchased Upstate Biotechnology
T15 sequence (P07333 20-972): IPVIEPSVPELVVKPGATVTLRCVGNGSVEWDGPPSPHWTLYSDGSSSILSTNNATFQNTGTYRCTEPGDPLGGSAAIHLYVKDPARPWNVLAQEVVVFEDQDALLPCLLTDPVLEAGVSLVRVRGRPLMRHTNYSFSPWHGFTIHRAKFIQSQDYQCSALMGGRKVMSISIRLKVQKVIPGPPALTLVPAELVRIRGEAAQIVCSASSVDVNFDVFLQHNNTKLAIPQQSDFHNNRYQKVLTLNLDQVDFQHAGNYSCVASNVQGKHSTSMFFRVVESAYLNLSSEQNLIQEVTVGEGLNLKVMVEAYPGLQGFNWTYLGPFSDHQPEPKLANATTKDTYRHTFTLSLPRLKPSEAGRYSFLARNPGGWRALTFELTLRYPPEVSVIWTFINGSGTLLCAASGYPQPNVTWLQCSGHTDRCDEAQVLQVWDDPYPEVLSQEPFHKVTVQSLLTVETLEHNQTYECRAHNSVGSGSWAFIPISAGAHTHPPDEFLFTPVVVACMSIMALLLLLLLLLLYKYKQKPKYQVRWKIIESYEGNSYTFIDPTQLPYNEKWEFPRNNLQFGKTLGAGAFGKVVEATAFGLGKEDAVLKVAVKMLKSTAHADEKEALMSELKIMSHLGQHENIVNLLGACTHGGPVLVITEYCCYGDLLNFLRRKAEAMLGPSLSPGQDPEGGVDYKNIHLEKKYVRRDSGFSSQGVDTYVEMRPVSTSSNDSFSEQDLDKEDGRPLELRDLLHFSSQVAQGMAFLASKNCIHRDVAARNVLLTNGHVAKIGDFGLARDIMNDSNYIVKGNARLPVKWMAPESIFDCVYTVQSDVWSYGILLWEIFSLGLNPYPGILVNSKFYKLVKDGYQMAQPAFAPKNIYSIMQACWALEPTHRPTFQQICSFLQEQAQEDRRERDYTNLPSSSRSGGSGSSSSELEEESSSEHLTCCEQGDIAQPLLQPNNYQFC

T2 sequence (P10721 with tags, fused parts or gaps): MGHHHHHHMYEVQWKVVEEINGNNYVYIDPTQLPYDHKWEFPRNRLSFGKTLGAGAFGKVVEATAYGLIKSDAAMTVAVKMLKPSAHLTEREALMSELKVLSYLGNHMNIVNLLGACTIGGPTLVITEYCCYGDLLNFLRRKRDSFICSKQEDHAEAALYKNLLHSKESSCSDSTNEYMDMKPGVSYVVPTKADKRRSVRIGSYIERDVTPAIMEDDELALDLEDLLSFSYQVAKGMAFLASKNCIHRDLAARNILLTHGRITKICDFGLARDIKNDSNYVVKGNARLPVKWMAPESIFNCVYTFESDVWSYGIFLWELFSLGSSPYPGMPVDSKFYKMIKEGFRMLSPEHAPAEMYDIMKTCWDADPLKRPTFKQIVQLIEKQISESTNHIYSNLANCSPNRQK
Sequence of Hck (P08631 whole entry): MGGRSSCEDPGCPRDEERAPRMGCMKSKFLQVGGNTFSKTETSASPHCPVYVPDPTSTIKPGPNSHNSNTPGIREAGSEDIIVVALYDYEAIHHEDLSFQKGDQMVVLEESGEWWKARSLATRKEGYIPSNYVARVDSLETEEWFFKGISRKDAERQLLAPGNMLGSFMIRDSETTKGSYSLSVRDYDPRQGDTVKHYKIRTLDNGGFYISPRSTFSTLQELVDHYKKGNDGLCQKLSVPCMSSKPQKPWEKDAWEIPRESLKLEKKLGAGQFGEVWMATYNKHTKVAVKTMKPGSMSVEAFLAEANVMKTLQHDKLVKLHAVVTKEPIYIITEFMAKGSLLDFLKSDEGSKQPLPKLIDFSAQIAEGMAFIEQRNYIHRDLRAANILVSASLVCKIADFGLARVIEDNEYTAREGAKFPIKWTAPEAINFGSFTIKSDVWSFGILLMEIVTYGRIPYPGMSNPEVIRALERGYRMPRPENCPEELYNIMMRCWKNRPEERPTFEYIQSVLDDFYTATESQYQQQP
Sequence of Frk (P42685 whole entry): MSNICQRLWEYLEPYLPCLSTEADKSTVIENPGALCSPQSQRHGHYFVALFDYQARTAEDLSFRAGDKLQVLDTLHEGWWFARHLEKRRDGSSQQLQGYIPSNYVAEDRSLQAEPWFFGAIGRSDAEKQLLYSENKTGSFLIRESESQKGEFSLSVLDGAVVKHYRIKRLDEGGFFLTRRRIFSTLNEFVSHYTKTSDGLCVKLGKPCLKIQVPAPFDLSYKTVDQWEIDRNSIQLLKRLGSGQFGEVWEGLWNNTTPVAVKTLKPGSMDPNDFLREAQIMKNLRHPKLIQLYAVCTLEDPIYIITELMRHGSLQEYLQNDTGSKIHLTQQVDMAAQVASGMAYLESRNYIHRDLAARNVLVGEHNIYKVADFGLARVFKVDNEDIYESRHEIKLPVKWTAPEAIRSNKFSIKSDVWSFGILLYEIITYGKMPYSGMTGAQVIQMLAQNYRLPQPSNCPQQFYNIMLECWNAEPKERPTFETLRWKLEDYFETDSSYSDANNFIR
T8 sequence (P11362 458-765 C488A/C584S): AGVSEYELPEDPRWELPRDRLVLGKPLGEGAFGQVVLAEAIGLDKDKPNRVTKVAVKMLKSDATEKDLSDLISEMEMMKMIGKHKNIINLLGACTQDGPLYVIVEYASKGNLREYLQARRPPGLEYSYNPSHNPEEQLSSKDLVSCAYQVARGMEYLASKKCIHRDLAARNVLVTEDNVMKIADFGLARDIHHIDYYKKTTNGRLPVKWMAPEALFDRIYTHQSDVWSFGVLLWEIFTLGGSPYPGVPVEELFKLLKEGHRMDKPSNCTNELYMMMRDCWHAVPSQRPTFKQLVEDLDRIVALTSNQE
Sequence of PDGFRA (P16234 24-1089): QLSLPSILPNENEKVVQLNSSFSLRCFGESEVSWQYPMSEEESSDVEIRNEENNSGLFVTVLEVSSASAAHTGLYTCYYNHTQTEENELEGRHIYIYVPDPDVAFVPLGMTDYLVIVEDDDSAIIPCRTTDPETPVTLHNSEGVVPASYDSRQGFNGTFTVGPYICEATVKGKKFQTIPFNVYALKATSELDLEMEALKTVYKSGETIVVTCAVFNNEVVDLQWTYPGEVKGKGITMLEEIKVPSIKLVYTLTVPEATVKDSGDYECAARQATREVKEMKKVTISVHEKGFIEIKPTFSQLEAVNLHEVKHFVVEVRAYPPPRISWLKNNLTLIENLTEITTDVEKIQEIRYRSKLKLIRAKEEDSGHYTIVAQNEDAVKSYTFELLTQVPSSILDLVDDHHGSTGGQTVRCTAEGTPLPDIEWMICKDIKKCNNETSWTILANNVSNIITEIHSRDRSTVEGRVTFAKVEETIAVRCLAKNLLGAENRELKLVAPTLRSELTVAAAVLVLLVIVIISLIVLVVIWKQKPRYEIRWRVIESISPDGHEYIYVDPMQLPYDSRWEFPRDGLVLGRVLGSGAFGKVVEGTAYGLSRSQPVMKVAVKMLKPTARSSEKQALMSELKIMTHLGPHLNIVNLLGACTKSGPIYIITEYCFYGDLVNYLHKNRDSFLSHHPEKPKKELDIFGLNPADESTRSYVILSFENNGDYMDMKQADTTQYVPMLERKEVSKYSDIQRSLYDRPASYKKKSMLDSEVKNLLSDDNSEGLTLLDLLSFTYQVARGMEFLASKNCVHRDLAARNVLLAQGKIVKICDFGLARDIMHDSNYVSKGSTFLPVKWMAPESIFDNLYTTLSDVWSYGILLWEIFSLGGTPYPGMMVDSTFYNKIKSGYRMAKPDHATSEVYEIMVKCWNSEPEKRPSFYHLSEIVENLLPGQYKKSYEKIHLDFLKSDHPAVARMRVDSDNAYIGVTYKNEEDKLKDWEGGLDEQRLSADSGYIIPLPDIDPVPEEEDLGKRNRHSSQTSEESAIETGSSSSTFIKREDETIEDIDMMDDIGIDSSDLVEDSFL
T7 sequence (Q05397 411-686): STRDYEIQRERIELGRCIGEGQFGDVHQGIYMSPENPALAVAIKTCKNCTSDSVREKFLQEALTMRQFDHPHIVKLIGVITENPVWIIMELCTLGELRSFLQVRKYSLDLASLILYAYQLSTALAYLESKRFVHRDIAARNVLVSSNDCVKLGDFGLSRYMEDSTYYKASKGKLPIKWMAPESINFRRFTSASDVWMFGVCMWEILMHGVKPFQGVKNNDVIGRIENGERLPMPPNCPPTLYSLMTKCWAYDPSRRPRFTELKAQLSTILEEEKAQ
Sequence of Brk (Q13882 whole entry): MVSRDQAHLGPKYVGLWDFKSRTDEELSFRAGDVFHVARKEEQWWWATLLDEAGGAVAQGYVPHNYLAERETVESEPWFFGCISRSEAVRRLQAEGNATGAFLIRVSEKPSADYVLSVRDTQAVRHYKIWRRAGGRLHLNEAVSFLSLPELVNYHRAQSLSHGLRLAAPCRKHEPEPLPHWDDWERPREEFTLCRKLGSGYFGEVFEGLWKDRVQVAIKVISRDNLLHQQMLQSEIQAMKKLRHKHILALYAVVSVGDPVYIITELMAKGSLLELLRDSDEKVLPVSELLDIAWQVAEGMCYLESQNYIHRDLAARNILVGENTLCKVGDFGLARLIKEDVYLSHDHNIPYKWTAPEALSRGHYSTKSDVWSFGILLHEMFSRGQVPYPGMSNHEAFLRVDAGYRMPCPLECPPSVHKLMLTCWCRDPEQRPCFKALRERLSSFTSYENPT
T9 sequence (P12931 with tags, fused parts or gaps): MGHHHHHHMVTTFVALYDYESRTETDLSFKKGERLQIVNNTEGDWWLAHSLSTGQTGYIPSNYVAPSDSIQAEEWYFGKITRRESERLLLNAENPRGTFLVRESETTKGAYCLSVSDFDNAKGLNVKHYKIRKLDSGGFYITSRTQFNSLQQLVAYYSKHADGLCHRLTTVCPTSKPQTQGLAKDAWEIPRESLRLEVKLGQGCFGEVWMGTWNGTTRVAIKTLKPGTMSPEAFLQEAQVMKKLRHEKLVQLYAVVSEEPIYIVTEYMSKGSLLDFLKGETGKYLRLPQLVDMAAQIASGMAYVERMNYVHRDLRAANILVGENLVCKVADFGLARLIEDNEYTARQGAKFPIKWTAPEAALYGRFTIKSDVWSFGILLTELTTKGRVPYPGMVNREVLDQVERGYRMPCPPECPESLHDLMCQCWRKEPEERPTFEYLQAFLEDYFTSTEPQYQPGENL

IC50 (Kit) [µM]	IC50 (Stk6) [µM]	IC50 (Fak) [µM]	IC50 (FGFR1) [µM]	IC50 (Src) [µM]	IC50 (Csk) [µM]	IC50 (Frk) [µM]	IC50 (Hck) [µM]	IC50 (MAP4K4) [µM]	IC50 (PDGFRA) [µM]	IC50 (Brk) [µM]	Compound	other results
≤ 10	≤ 10	–	–	–	–	–	–	–	–	–	O=C(O)c1ccc(Sc2c[nH]c3ncccc23)nc1 [Compound P-0086]	IC50 (Kdr): ≤ 10 µM; IC50 (MAPKAPK2): ≤ 10 µM; IC50 (Pyk2): ≤ 10 µM; IC50 (Gsk3β): ≤ 10 µM; IC50 (IKK beta): ≤ 10 µM
≤ 10	≤ 10	≤ 10	≤ 10	≤ 10	≤ 10	≤ 10	≤ 10	≤ 10	≤ 10	≤ 10	CCCS(=O)(=O)Nc1ccc(F)c(C(=O)c2c[nH]c3ncc(Cl)cc23)c1F [Compound P-0933, Propane-1-sulfonic acid [3-(5-chloro-1H-pyrrolo[2,3-b]pyridine-3-carbonyl)-2,4-difluoro-phenyl]-amide]	–
≤ 10	≤ 10	≤ 10	≤ 10	≤ 10	≤ 10	≤ 10	≤ 10	≤ 10	≤ 10	≤ 10	O=C(c1c(F)ccc(NS(=O)(=O)c2ccccc2)c1F)c1c[nH]c2ncc(Cl)cc12 [Compound P-0885, N-[3-(5-Chloro-1H-pyrrolo[2,3-b]pyridine-3-carbonyl)-2,4-difluorophenyl]-benzenesulfonamide]	IC50 (Abl): ≤ 10 µM; IC50 (B-Raf): ≤ 10 µM; IC50 (B-Raf V600E): ≤ 10 µM; IC50 (Btk): ≤ 10 µM; IC50 (c-Raf-1): ≤ 10 µM; IC50 (Fms): ≤ 10 µM
